{
  "source": "patent US6126918A",
  "about": "“Screening assays to identify therapeutic agents for amyloidosis” (Imperial College Innovations Limited, priority 1993, dated 2000)",
  "key": {"[1]": {"target": "T1, SAP binding to AA type amyloid fibrils (Homo sapiens, UniProt P02743)", "T1 construct": "isolated at greater than 99% purity from pooled human ascites and pleural effusion fluids; from tissue; host or cells: SAP from pooled human ascites and pleural effusion fluids; fibrils from patients' organs such as spleen", "T1 sequence (P02743 20-223)": "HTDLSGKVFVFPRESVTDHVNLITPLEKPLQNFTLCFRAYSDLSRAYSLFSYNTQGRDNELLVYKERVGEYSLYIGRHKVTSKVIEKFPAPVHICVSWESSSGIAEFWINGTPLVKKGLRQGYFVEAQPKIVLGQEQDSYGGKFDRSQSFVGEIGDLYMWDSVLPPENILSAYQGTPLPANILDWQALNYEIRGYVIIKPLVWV", "assay": "Inhibition of SAP binding to amyloid fibrils (125I-SAP)", "conditions": "concentrations above about 2 mM in the final incubation mixture", "description": "Amyloid fibrils are isolated from the organs, such as the spleen, obtained post mortem from patients with amyloidosis of AA or AL type, using the water extraction method of Pras et al. This method is modified in that the initial saline homogenizations are conducted using Tris buffered saline containing 10 mM EDTA to ensure complete dissociation of all endogenous SAP [56]. The fibril-rich water extract is mixed with Tris buffered saline containing calcium chloride to bring the final salt concentration to 138 m NaCl, 10 mM Tris, 2 mM CaCl2, pH 8.0, and this is then centrifuged at 1500 g for 5 minutes to sediment the fibrils. These are then resuspended in Tris saline calcium buffer, pH 8.0, at the same concentration as above (TC buffer), so as to provide a suitable suspension, for example, A280 =0.255, A320 =0.132, and this is stored at 4° C. […] Agents to be tested are dissolved at a concentration of about 10 mM in TC, or in 1:10 DMSO in water or TC. If they are active in inhibiting SAP binding they are tested at a range of lower concentrations to determine the minimal inhibitory dose.\nFor the assay itself 10 μl of labelled SAP is mixed with 50 μl of amyloid fibril suspension and 40 μl of the test substance and incubated, with mixing, for 60 minutes at room temperature. […] The fibrils are washed with TC containing 1% w/v BSA and the radioactive SAP bound is measured. […]"}, "AA amyloid fibrils": {"test_system": "AA amyloid fibrils", "assay": "Trypsin or chymotrypsin digestion of AA amyloid fibrils, SDS-PAGE quantification of AA protein band", "format": "biochemical, human", "conditions": "6 hours at 37° C.", "description": "(b) AA amyloid fibrils obtained ex vivo were incubated for 6 hours at 37° C. with trypsin or chymotrypsin at a substrate:enzyme ratio of 10:1 in the presence or absence of SAP and with or without MOβDG, according to the general protocol given above. The incubation mixtures were then analysed by Coomassie blue stained SDS-PAGE with quantification of the AA protein band. Intensity of this band after incubation without trypsin was taken as 100%."}, "[2]": {"test_system": "Alzheimer's disease β-protein fibrils", "assay": "Pronase digestion of Alzheimer's disease β-protein fibrils, SDS-PAGE", "format": "biochemical", "conditions": "for Digestion of β-protein: SAP 10 μg/ml, pronase 1 μg/ml, 1 hour at 37° C.", "description": "Alzheimer's disease β-protein, prepared as a synthetic peptide containing residues 1-40 was obtained from California Peptide Research, and was dissolved in pure water at 4 mg/ml, that is 1 mM. Some was kept at 4° C. (\"fresh\") and some was aged by incubation at 37° C. for 7 days. It is known that fibrils form very slowly in the cold but that \"ageing\" is associated with marked amyloid fibril formation, and this was confirmed in the present case by Congo red staining and by direct electron microscopy.\n(a) β-protein solutions obtained as described above were diluted to 0.2 mg/ml in TC immediately before use. Highly purified human SAP in solution in 138 mM NaCl, 10 mM Tris, pH 8.0 (TN) was diluted in TN to 0.1 mg/ml, 0.5 mg/ml and 2.5 mg/ml Pronase from S. griseus was obtained from Boehringer Mannheim and was freshly prepared at 0.04 and 0.004 mg/ml in TC just before use.\nAliquots, 50 μl, of aged or fresh β-protein were mixed with 20 μl volumes of TN alone or SAP at the different concentrations shown in FIG. 5 and with 5 μl of 10 mM CaCl2, and then incubated with shaking at 37° C. for 1 hour. TC alone or pronase in TC at 0.04 or 0.004 mg/ml were added in a volume of 25 μl and incubation continued for a further 1 hour at 37° C. Digestion was then stopped by addition of an equal volume of reducing SDS-PAGE sample buffer (20 mM Tris pH 8.0, 2 mM EDTA, 5% w/v SDS, 10% w/v 2-mercaptoethanol, 0.05% w/v bromophenol blue, 20% w/v glycerol) and boiling for 10 minutes. These samples were finally analysed in reduced SDS homogeneous 15% PAGE, stained with Brilliant blue R350. The proportion of the β-protein present in each track was estimated by scanning densitometry with reference to the no pronase control which was taken as 100%. The proportion digested was calculated by subtraction and plotted against the SAP concentration.\n(d) Abrogation of protection by MOβDG: β-protein fibrils at 100 μg/ml were incubated for 1 hour at 37° C. with pronase at 1 μg/ml, in the presence or absence of SAP and with or without different concentrations of MOβDG. The extent of digestion of the β-protein was then estimated by SDS-PAGE analysis."}, "[3]": {"test_system": "amyloid fibrils of AA, AL and apoAI type", "assay": "Proteinase digestion of ex vivo amyloid fibrils (AA, AL, apoAI) in vitro", "format": "biochemical, human", "conditions": "for Effect on fibril digestion by proteinases: protein added to incubation mixtures, 37° C."}, "SAP [4]": {"target": "T2, SAP (Homo sapiens, UniProt P02743)", "T2 construct": "homopentamer, can form decamer; calcium-dependent ligand site", "T2 sequence (P02743 20-223)": "as above", "assay": "Binding of DNA by SAP", "conditions": "unpublished observations", "description": "SAP also binds polyanions such as heparan sulphate, dermatan sulphate and DNA [4] in the presence of calcium. […] There are several basic regions in SAP, for example Arg120, Arg77, His78, Lys79 and Arg57, which are on the same surface as the calcium and PE binding sites. It seems more likely that the phosphate backbone of DNA and the sulphated polysaccharides bind both at the calciums and at the basic sites, possibly on more than one subunit simultaneously. These extensive interactions probably account for the ability of SAP to displace from DNA the H1-type histones in chromatin [5]. The sequence differences in the basic regions and in the calcium binding region could explain the variable affinity for DNA shown by different pentraxins. Human CRP, for instance, only binds DNA at low, non-physiological ionic strength. […] Similar effects are observed for SAP binding to immobilised PE [unpublished observations]. As we can find no evidence for a second binding site for PE or MOβDG in the present experimental conditions, these effects must be mediated through inter-subunit interactions."}, "SAP [5]": {"target": "T2, SAP", "conditions": "neutral solutions in the presence of calcium ions; reference [44]; cited from earlier work"}, "SAP [6]": {"target": "T2, SAP", "assay": "Calcium-dependent aggregation of SAP in neutral solution", "conditions": "neutral solutions in the presence of calcium ions; unpublished observations", "description": "SAP rapidly aggregates in neutral solutions in the presence of calcium ions presumably due to intermolecular interactions involving the surface of the decamer with the exposed calcium binding site. […] Similarly they compete for the calcium site with Glu167 which is an important lattice contact in the pentamer crystals."}},
  "note": "Like-named read-outs stand apart in the source and are kept apart here.",
  "data": [
    {"molecule": "CO[C@@H]1O[C@@H]2CO[C@@](C)(C(=O)O)O[C@@H]2[C@H](O)[C@H]1O", "note": "[MOβDG, methyl 4,6-O-(1-carboxyethylidene)-β-D-galactopyranoside]", "values": [
      {"measurement": "Effect on SAP binding to amyloid fibrils", "setting": "[1]", "value": "reduces binding to background levels"},
      {"measurement": "% AA protein remaining", "setting": "AA amyloid fibrils; Chymotrypsin, SAP 50 μg/ml plus MOβDG 1 mM", "value": 10, "unit": "%"},
      {"measurement": "% AA protein remaining", "setting": "AA amyloid fibrils; Trypsin, SAP 50 μg/ml plus MOβDG 1 mM", "value": 5, "unit": "%"},
      {"measurement": "Digestion of β-protein", "setting": "[2]; MOβDG 1.3 mM", "value": 75, "unit": "%"},
      {"measurement": "Digestion of β-protein", "setting": "[2]; MOβDG 6.7 mM", "value": 85, "unit": "%"},
      {"measurement": "Digestion of β-protein", "setting": "[2]; MOβDG 33.3 mM", "value": 90, "unit": "%"},
      {"measurement": "Protection by SAP in the presence of MOβDG", "setting": "[2]; β-protein amyloid fibrils with SAP", "value": "completely abrogated"},
      {"measurement": "Protective effect of SAP when MOβDG was included", "setting": "[3]; MOβDG included in the incubation mixtures with SAP", "value": "completely abrogated"},
      {"measurement": "Effect on binding of DNA by SAP", "setting": "SAP [4]", "value": "enhance the binding of DNA by SAP and compete with the interaction at high concentration"},
      {"measurement": "Inhibition of SAP aggregation", "setting": "SAP [5]", "value": "can be inhibited"}
    ]},
    {"molecule": "NCCOP(=O)(O)O", "note": "[PE, phosphoethanolamine]", "values": [
      {"measurement": "Inhibition of SAP aggregation", "setting": "SAP [6]", "value": "can be inhibited"},
      {"measurement": "Effect on binding of DNA by SAP", "setting": "SAP [4]", "value": "enhance the binding of DNA by SAP and compete with the interaction at high concentration"}
    ]},
    {"molecule": "CRP: C-reactive protein, control protein that does not bind to amyloid fibrils", "values": [
      {"measurement": "Effect on fibril digestion by proteinases", "setting": "[3]", "value": "had no effect on their digestion"}
    ]},
    {"molecule": "SAP: Serum amyloid P component, a normal human plasma protein; highly purified human SAP", "values": [
      {"measurement": "% AA protein remaining", "setting": "AA amyloid fibrils; Chymotrypsin, SAP 10 μg/ml, no MOβDG", "value": 20, "unit": "%"},
      {"measurement": "% AA protein remaining", "setting": "AA amyloid fibrils; Chymotrypsin, SAP 50 μg/ml, no MOβDG", "value": 60, "unit": "%"},
      {"measurement": "% AA protein remaining", "setting": "AA amyloid fibrils; Trypsin, SAP 10 μg/ml, no MOβDG", "value": 20, "unit": "%"},
      {"measurement": "% AA protein remaining", "setting": "AA amyloid fibrils; Trypsin, SAP 50 μg/ml, no MOβDG", "value": 50, "unit": "%"},
      {"measurement": "Digestion of β-protein", "setting": "[2]; MOβDG 0 mM", "value": 60, "unit": "%"},
      {"measurement": "Protection of β-protein amyloid fibrils from proteolysis", "setting": "[2]; fibrils produced in vitro from synthetic β-protein", "value": "protected the β-protein amyloid fibrils from proteolysis"},
      {"measurement": "Effect on fibril digestion by proteinases", "setting": "[3]", "value": "greatly reduced fibril digestion"}
    ]}
  ]
}
